In EP4631938A1, “NITROGEN-CONTAINING HETEROCYCLE WITH SEROTONIN RECEPTOR-BINDING ACTIVITY AND CARBOCYCLIC DERIVATIVE” (Shionogi & Co., Ltd, priority 2022, dated 2024):
Read-outs that look alike come from different tables or passages of the source.

What was measured:
[1] = target: T1, human recombinant 5-HT2A receptor (Homo sapiens, UniProt P28223); test: Test Example 1-2: 5-HT2A receptor binding inhibition test ([3H]-Ketanserin; non-specific ligand Ketanserin)
T1 construct: expressed in transfected cells; host or cells: Jump-In HEK cells (membrane preparation)
T1 sequence (P28223 whole entry): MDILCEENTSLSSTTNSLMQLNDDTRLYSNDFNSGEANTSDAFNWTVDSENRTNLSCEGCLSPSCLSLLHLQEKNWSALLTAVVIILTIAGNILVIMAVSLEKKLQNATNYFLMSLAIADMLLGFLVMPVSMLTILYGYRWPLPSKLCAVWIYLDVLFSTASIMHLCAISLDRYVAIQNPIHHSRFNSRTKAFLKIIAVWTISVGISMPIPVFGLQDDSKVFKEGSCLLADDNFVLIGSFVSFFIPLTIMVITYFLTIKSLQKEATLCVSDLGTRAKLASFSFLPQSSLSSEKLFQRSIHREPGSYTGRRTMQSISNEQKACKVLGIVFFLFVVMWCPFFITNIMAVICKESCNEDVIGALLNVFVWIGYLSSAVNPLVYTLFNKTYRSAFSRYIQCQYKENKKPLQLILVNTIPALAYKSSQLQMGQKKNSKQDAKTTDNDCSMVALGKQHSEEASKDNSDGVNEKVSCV
Outline: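 Membranes expressing the receptor were incubated with [3H]-ketanserin and compound for 1.5 h at 25 °C, then filtered onto plates presoaked in 50 mmol/L Tris-HCl pH 7.4 and scintillation-counted. Non-specific binding was defined with 500 µmol/L unlabeled ketanserin. Ki was taken from dose-response curves, with Kd set for each membrane lot by Scatchard analysis.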

[2] = target: T2, human recombinant 5-HT2C receptor (Homo sapiens, UniProt P28335); test: Test Example 2: 5-HT2C receptor binding inhibition test ([3H]-Mesulergine; non-specific ligand Serotonin HCl); conditions: human serotonin 5-HT2C receptor binding activity
T2 construct: expressed in transfected cells; host or cells: Jump-In HEK cells (membrane preparation)
T2 sequence (P28335 33-458): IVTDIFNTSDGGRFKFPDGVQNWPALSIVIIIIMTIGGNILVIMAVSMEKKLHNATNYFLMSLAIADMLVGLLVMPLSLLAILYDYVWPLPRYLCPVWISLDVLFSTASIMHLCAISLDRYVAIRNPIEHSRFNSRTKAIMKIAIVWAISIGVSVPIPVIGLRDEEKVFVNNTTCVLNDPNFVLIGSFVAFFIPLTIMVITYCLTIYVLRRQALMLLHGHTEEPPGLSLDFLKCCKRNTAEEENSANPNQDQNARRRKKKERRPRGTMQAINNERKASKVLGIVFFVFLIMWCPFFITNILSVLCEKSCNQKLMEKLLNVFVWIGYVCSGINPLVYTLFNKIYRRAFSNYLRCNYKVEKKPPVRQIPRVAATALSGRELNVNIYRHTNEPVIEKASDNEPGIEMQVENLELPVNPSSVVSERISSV
Outline: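 Filtration binding to membranes bearing human 5-HT2C with [3H]-mesulergine, 2 h at 37°C; non-specific binding defined with 500 µmol/L serotonin HCl, total binding with vehicle. Inhibition rate computed from cpm; Ki derived from dose-response curve, with ligand Kd from Scatchard analysis of saturation binding.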

[3] = [3H]-Ketanserin, non-specific binding with 500 µmol/L Ketanserin, room temperature (25°C), 1.5 hours, read-out: h 5-HT2A Ki

| Ki [1, 3] [nM] | Ki [2] [nM] | SMILES | Ki [1] [nM] |
| --- | --- | --- | --- |
| 2.4 | 18.3 | Cc1nc(C)c(-c2cc(Nc3ncc(C(F)(F)F)cc3F)ncc2O[C@H](C)CO)c(C)n1 [Compound I-361] |  |
| 1.21 | 1.05 | Cc1nc(C)c(-c2cc(Nc3ccc(-c4ccc(C(F)(F)F)nc4)cn3)ncc2OCCO)c(C)n1 [Compound I-315] |  |
| 0.188 | 0.585 | Cn1ncc(Cl)c1-c1cc(Nc2ncc(OC(F)(F)F)cc2F)ncc1OCCO [Compound I-305] |  |
| 0.421 | 8.52 | COCc1nc(C)c(-c2cc(Nc3ccc(OCc4ccccc4)cn3)ncc2OCCO)c(C)n1 [Compound I-324] |  |
| 0.198 | 1.38 | Cn1ncc(Cl)c1-c1cc(Nc2ccc(OCC(F)(F)F)cn2)ncc1OCCO [Compound I-313] |  |
| 0.313 | 7.18 | Cn1ncc(Br)c1-c1nc(Nc2ccc(C(F)(F)F)cn2)ncc1OCCO [Compound I-337] |  |
| 0.257 | 3.12 | Cn1ncc(Br)c1-c1nc(Nc2ccc(Cl)c(F)c2)ncc1OCCO [Compound I-345] |  |
| 0.527 | 7.28 | COc1nc(C)nc(OC)c1-c1cc(Nc2ncc(C(F)(F)F)cc2Cl)ncc1OCCO [Compound I-380] |  |
| 0.179 | 0.975 | Cn1ncc(Br)c1-c1nc(Nc2ccc(OC(F)F)cc2)ncc1OCCO [Compound I-353] |  |
| 0.221 | 0.715 | Cn1ncc(Br)c1-c1cc(Nc2ccc(OCC(F)(F)F)cn2)ncc1OCCO [Compound I-307] |  |
| 0.226 | 0.748 | Cn1ncc(Br)c1-c1nc(Nc2ccc(C(F)(F)F)cc2)ncc1OCCO [Compound I-336] |  |
| 0.575 | 9.45 | Cc1nc(C)c(-c2cc(Nc3ccc(Oc4ccc(F)cc4)cn3)ncc2OCCO)c(C)n1 [Compound I-308] |  |
| 9.96 | 17.2 | COCc1nc(C)c(-c2nc(Nc3ccc(C(F)(F)F)c(C#N)n3)c(F)cc2OCCO)c(C)n1 [Compound I-396] |  |
| 0.202 | 5.99 | Cn1ncc(Br)c1-c1nc(Nc2ccc(C#N)cc2)ncc1OCCO [Compound I-352] |  |
| 1.18 | 1.87 | COCc1nc(C)c(-c2cc(Nc3ncc(-c4ncc(C)s4)cc3Cl)ncc2OCCO)c(C)n1 [Compound I-335] |  |
| 0.902 | 3.68 | Cc1nc(C)c(-c2cc(Nc3ccc(-c4ccc(C(F)(F)F)cn4)cn3)ncc2OCCO)c(C)n1 [Compound I-314] |  |
| 0.28 | 0.266 | Cn1ncc(Br)c1-c1cc(Nc2ncc(OC(F)(F)F)cc2F)ncc1OCCO [Compound I-287] |  |
| 0.463 | 2.48 | Cn1ncc(Br)c1-c1cc(Nc2nc3ccc(F)cc3[nH]2)c(F)cc1OCCO [Compound I-406] |  |
| 17.6 | 78.9 | COCc1nc(C)c(-c2nc(Nc3cc(-c4ccccc4)no3)c(F)cc2OCCO)c(C)n1 [Compound I-393] |  |
| 0.955 | 1.8 | Cc1nc(COC2CC2)nc(C)c1-c1cc(Nc2ncc(C(F)(F)F)cc2Cl)ncc1OCCO [Compound I-374] |  |
| 2.87 | 4.58 | Cc1nc(C)c(-c2nc(Nc3ccc(C(F)(F)F)c(C)n3)c(F)cc2OCCO)c(C)n1 [Compound I-384] |  |
| 4.65 | 1.98 | COCc1nc(C)c(-c2nc(Nc3ccc(-c4ccc(C(F)(F)F)nc4)cn3)c(F)cc2OCCO)c(C)n1 [Compound I-365] |  |
| 2.32 | 2.76 | Cc1nc(C)c(-c2nc(Nc3ccc(-c4ccc(C(F)(F)F)nc4)cn3)c(F)cc2OCCO)c(C)n1 [Compound I-363] |  |
| 0.212 | 1.38 | Cn1ncc(Br)c1-c1nc(Nc2ccc(Cl)cc2F)ncc1OCCO [Compound I-340] |  |
| 0.347 | 0.86 | Cn1ncc(Br)c1-c1cc(Nc2ncc(C(F)(F)F)cc2F)c(Cl)cc1OCCO [Compound I-399] |  |
| 2.37 | 61.5 | CNC(=O)c1cnc(C)c(-c2cc(Nc3ncc(C(F)(F)F)cc3F)ncc2OCCO)c1 [Compound I-371] |  |
| 0.215 | 6.11 | Cc1cc(Nc2ncc(OCCO)c(-c3c(Br)cnn3C)n2)ccc1Cl [Compound I-348] |  |

Continued, molecule first:

| SMILES | Ki [1, 3] [nM] | Ki [2] [nM] | Ki [1] [nM] |
| --- | --- | --- | --- |
| COCc1nc(C)c(-c2cc(Nc3ncc(OC(F)(F)F)cc3C)ncc2OCCO)c(C)n1 [Compound I-186] | 1.75 | 1.73 |  |
| Cc1nc(C)c(-c2cc(Nc3ncc(OC(F)(F)F)cc3C)ncc2OCCO)c(C)n1 [Compound I-181] | 0.984 | 3.62 |  |
| O=C1NCCc2c1cccc2-c1cc(Nc2ncc(C(F)(F)F)cc2F)ncc1OCCO [Compound I-227] | 1.21 | 26.7 |  |
| Cc1nc(C(F)F)nc(C)c1-c1cc(Nc2ncc(C(F)(F)F)cc2Cl)ncc1OCCO [Compound I-223] | 0.877 | 9.21 |  |
| Cn1ncc(C#N)c1-c1cc(Nc2ncc(OC(F)(F)F)cc2Cl)ncc1OCCO [Compound I-187] | 0.183 | 2.9 |  |
| Cc1nc(C)c(-c2cc(Nc3ncc(C(F)(F)F)cc3F)c(F)cc2OC[C@H](C)O)c(C)n1 [Compound I-197] | 2.83 | 65.6 |  |
| Cn1ncc(Cl)c1-c1cc(Nc2ccc(Cl)cn2)c(F)cc1OCCO [Compound I-163] | 0.216 | 1.26 |  |
| Cc1nc(N2CCCC2)nc(C)c1-c1cc(Nc2ncc(C(F)(F)F)cc2Cl)ncc1OCCO [Compound I-209] | 1.71 | 5.63 |  |
| Cc1nc(OCC2COC2)nc(C)c1-c1cc(Nc2ncc(C(F)(F)F)cc2Cl)ncc1OCCO [Compound I-219] | 1.25 | 6.28 |  |
| COCc1nc(C)c(-c2cc(Nc3ncc(OC(F)F)cc3Cl)ncc2OCCO)c(C)n1 [Compound I-231] | 3.78 | 5.1 |  |
| Cc1cc(OC(F)F)cnc1Nc1cc(-c2c(Br)cnn2C)c(OCCO)cn1 [Compound I-177] | 0.331 | 0.63 |  |
| Cn1ncc(Br)c1-c1cc(Nc2ccc(OC(F)(F)F)cn2)ncc1OCCO [Compound I-277] |  | 0.217 | 0.186 |
| COCc1nc(C)c(-c2cc(Nc3ccc(C4CC(F)(F)C4)cn3)ncc2OCCO)c(C)n1 [Compound I-192] | 2.31 | 9.15 |  |
| COCCOc1nc(C)c(-c2cc(Nc3ncc(C(F)(F)F)cc3Cl)ncc2OCCO)c(C)n1 [Compound I-213] | 1.26 | 4.07 |  |
| COCc1nc(C)c(-c2cc(Nc3ncc(-c4ccc(C#N)nc4)cc3Cl)ncc2OCCO)c(C)n1 [Compound I-244] | 3.75 | 2.87 |  |
| Cc1nc(OC2COC2)nc(C)c1-c1cc(Nc2ncc(C(F)(F)F)cc2Cl)ncc1OCCO [Compound I-220] | 1.39 | 5.91 |  |

| SMILES | Ki [1, 3] [nM] | Ki [2] [nM] | Ki [1] [nM] |
| --- | --- | --- | --- |
| Cc1nc(OCC(F)F)nc(C)c1-c1cc(Nc2ncc(C(F)(F)F)cc2Cl)ncc1OCCO [Compound I-211] | 0.706 | 1.89 |  |
| COCc1nc(C)c(-c2cc(Nc3ccc(-c4ccc(Cl)cc4)cn3)ncc2OCCO)c(C)n1 [Compound I-273] | 0.309 | 0.395 |  |
| Cc1nc(C2COC2)nc(C)c1-c1cc(Nc2ncc(C(F)(F)F)cc2Cl)ncc1OCCO [Compound I-207] | 2.23 | 6.02 |  |
| Cn1ncc(Cl)c1-c1cc(Nc2ncc(Cl)cn2)c(F)cc1OCCO [Compound I-162] | 0.395 | 4.25 |  |
| COCc1nc(C)c(-c2cc(Nc3ncc(OCC(F)(F)F)cc3Cl)ncc2OCCO)c(C)n1 [Compound I-232] | 8.27 | 6.06 |  |
| COCc1nc(C)c(-c2cc(Nc3ncc(-c4ccc(F)cc4)cc3Cl)ncc2OCCO)c(C)n1 [Compound I-230] | 0.576 | 0.372 |  |
| Cn1ncc(Br)c1-c1nc(Nc2ccc(C(F)(F)F)cn2)c(F)cc1OCCO [Compound I-279] | 0.306 | 1.94 |  |
| Cc1nc(N2CCCC2=O)nc(C)c1-c1cc(Nc2ncc(C(F)(F)F)cc2Cl)ncc1OCCO [Compound I-215] | 4.48 | 9.55 |  |
| Cn1ncc(F)c1-c1cc(Nc2ccc(C(F)(F)F)cn2)c(F)cc1OCCO [Compound I-170] | 0.212 | 5.45 |  |
| Cc1nc(C2CCCO2)nc(C)c1-c1cc(Nc2ncc(C(F)(F)F)cc2F)ncc1OCCO (racemic) [Compound I-198] | 5.3 | 9.63 |  |
| Cc1nc(C2CCC2)nc(C)c1-c1cc(Nc2ncc(C(F)(F)F)cc2Cl)ncc1OCCO [Compound I-208] | 1.02 | 1.67 |  |
| COCc1nc(C)c(-c2cc(Nc3ncc(-c4ccc(F)cc4)cc3F)ncc2OCCO)c(C)n1 [Compound I-251] | 0.325 | 0.393 |  |
| COCc1nc(C)c(-c2cc(Nc3ncc(-c4ccc(C#N)cc4)cc3Cl)ncc2OCCO)c(C)n1 [Compound I-241] | 0.799 | 0.637 |  |
| COCc1nc(C)c(-c2cc(Nc3ncc(C(F)(F)F)cc3F)c(F)cc2OCCO)c(C)n1 [Compound I-184] | 3.84 | 2.98 |  |
| Cc1cnn(C)c1-c1cc(Nc2ncc(OC(F)(F)F)cc2Cl)ncc1OCCO [Compound I-183] | 0.271 | 1.22 |  |
